{"source": "patent US12064455B2", "about": "“Free fatty acids and methods of manufacture and use for treating coronavirus and other viral respiratory infections” (priority 2020, dated 2024)", "key": {"hCoV-229E": {"test_system": "hCoV-229E", "test": "Neutralization/virucidal assay, Example 8"}, "[1]": {"test_system": "Influenza(H1N1)pdm09 virus", "test": "Neutralization/virucidal assay, Example 8", "format": "cell-based, influenza A(H1N1)pdm09", "settings": "Ethanol 70%"}, "Ad-5": {"test_system": "Ad-5", "format": "cell-based, Adenovirus Type 5"}, "A549": {"test_system": "A549", "test": "Toxicity controls, Example 8", "format": "cell-based", "settings": "Ethanol 70%; Ad-5 test; highest dilution with full (80-100%) cytotoxicity"}, "MA-104": {"test_system": "MA-104", "test": "Toxicity controls, Example 8", "settings": "Ethanol 70%, highest dilution with full (80-100%) cytotoxicity"}, "HRV-14": {"test_system": "HRV-14", "format": "cell-based, human rhinovirus"}, "HeLa": {"test_system": "HeLa", "test": "Toxicity controls, Example 8", "settings": "Ethanol 70%; HRV-14 test; highest dilution with full (80-100%) cytotoxicity"}, "SARS-CoV-2": {"test_system": "SARS-CoV-2", "format": "cell-based", "settings": "Ethanol 35%"}, "PIV-3": {"test_system": "PIV-3", "format": "cell-based, parainfluenza virus type 3"}, "RSV": {"test_system": "RSV", "format": "cell-based, respiratory syncytial virus"}}, "note": "Like-named read-outs stand apart in the source and are kept apart here."}
{"smiles": "CCO", "note": "[Ethanol]", "values": [{"measurement": "Virus Titer", "setting": "hCoV-229E", "value": "<0.7 log10 CCID50 of virus per 0.1 mL"}, {"measurement": "LRV", "setting": "hCoV-229E; Ethanol 70%, contact time 10-min, vs virus control", "value": ">2.0"}, {"measurement": "Toxicity", "setting": "MDCK", "value": "None"}, {"measurement": "Virus Titer", "setting": "[1]; contact time 10-min at 22 ± 2° C.", "value": "3.0 log10 CCID50 of virus per 0.1 mL"}, {"measurement": "LRV", "setting": "[1]; contact time 10-min, vs virus control", "value": 4.0}, {"measurement": "LRV", "setting": "Ad-5", "value": 3.4}, {"measurement": "Virus Titer", "setting": "Ad-5", "value": "5.3 log10 CCID50 of virus per 0.1 mL"}, {"measurement": "Toxicity", "setting": "A549", "value": "None"}, {"measurement": "Toxicity", "setting": "MA-104; PIV-3 test", "value": "None"}, {"measurement": "Toxicity", "setting": "MA-104; RSV test", "value": "None"}, {"measurement": "Virus Titer", "setting": "HRV-14", "value": "4.5 log10 CCID50 of virus per 0.1 mL"}, {"measurement": "Toxicity", "setting": "HeLa", "value": "None"}, {"measurement": "LRV", "setting": "SARS-CoV-2; assay replicate 1", "value": ">3.6−"}, {"measurement": "Virus Titer", "setting": "SARS-CoV-2; assay replicate 1", "value": "<0.7 Log10CCID50 of virus per 0.1 ml"}, {"measurement": "LRV", "setting": "SARS-CoV-2; assay replicate 2", "value": ">3.3"}, {"measurement": "Virus Titer", "setting": "SARS-CoV-2; assay replicate 2", "value": "<0.7 Log10CCID50 of virus per 0.1 ml"}, {"measurement": "LRV", "setting": "PIV-3", "value": ">2.3"}, {"measurement": "LRV", "setting": "RSV", "value": 2.0}, {"measurement": "Virus Titer", "setting": "RSV", "value": "1.0 log10 CCID50 of virus per 0.1 mL"}, {"measurement": "Toxicity", "setting": "Huh7", "value": "None"}]}
